From patent publication US20050261319A1, “Novel 2-amino-4-quinazolinones and 2-amino-4-oxoquinazolones as LXR nuclear receptor binding compounds with partial agonistic properties” (priority 2002, published 2005)
Each block holds one molecule with its values, some of them ahead of it.

What was measured:
human LXRalpha LBD = target: T1, human LXRalpha LBD (Homo sapiens, UniProt Q13133, A196R); assay: In vitro screening for LXR binding to coactivator Tif2 (LANCE TR-FRET); assay type: biochemical
T1 construct: from amino acids 155 of hLXRalpha to 447; made in house; host or cells: SF9 insect cells (baculovirus) for LXRalpha LBD; E. coli BL21 for Tif2 fragment
T1 sequence (Q13133 155-447 A196R): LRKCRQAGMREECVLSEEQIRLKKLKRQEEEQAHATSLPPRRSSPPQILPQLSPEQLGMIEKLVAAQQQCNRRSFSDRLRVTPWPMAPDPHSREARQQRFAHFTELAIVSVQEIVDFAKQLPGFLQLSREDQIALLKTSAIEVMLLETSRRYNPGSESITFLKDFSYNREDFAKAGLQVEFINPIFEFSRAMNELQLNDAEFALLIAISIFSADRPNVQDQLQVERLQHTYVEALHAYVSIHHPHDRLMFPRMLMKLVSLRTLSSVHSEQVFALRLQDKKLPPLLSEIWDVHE
T1 sequence (Q15596 548-878 partner limits assumed): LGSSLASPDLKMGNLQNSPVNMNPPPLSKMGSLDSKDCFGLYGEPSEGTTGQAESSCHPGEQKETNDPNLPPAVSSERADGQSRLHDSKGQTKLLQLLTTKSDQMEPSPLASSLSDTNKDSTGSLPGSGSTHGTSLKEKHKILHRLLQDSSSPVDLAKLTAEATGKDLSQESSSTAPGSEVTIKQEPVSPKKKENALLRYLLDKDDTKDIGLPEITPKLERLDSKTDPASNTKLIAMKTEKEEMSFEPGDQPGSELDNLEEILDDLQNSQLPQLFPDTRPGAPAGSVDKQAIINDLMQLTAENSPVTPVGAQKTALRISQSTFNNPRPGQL
Excerpt: For screening purposes a GST and 6× His fusion of the LBD (from amino acids 155 of hLXRalpha to 447) of human LXRalpha was constructed by first cloning a Gateway cassette (Invitrogen) in frame into the Sma I site of the pAGGHLT Polylinker (Pharmingen). Then a PCR fragment specifically amplified from human liver cDNA was cloned into the resulting pACGHLT-GW following the manufacturers instructions for Gateway cloning (Invitrogen) to yield pACGHLT-GW-hLXRalphaLBD.
100% sequence integrity of all recombinant products was verified by sequencing. Recombinant Baculovirus was constructed from pACGHLT-GW-hLXRalphaLBD using the Pharmingen Baculovirus Expression vector system according to instructions of the manufacturer. Monolayer cultures of SF9 cells were infected by the virus as recommended by Pharmingen or 200 ml cultures of 1×10^6 cells/ml grown in 2 liter Erlenmeyer flasks on an orbital shaker at 30 rpm were infected by 10 ml of same virus stock. In both cases cells were harvested 3 days after infection. All cell growth was performed in Gibco SF900 II with Glutamine (Invitrogen) medium without serum supplementation at 28° C. Since SF9 cells contain significant amounts of endogenous 30 GST, purification was performed via His and not via GST affinity chromatography.
To this end instructions of Pharmingen for purification of recombinant His tagged proteins from SF9 cells were followed with the following modifications: All detergents were omitted from the buffers and cells were lysed on ice by 5 subsequent sonication pulses using a sonicator needle at maximum power.
All eluates were dialyzed against 20 mM Tris/HCl pH 6.8, 300 mM KCl; 5 mM MgCl2;1 mM DTT; 0.2 mM PMSF; 10% Glycerol. A typical dialyzed eluate fraction contained the fusion protein at a purity of more than 80%. Total protein concentration was 0.1-0.3 mg/ml.
For E. coli expression of a NR coactivator, pDest17-hTif2BD expressing an NR interaction domain from amino acids 548-878 of human Tif2 (Acc. No: XM011633 Ref Seq) tagged by 6 N-terminal His residues was constructed. Therefore, a PCR fragment specifically amplified from human liver cDNA was subcloned into pDest 17 (Invitrogen) following the manufacturers instructions for Gateway cloning (Invitrogen). Primers used for Amplification were: […]
For E. coli expression plasmid DNA was transformed into chemically competent E. coli BL21 (Invitrogen, USA) and cells were grown to an OD600 of 0.4-0.7 before expression was induced by addition of 0.5 mM IPTG according instructions of the manufacturer (Invitrogen). After induction for 8 hours at 30° C. cells were harvested by centrifugation for 10 minutes at 5000×g. Fusion proteins were affinity purified using Ni—NTA Agarose (QIAGEN) according to the instructions of the manufacturer.
Recombinant Tif2 construct was dialyzed against 20 mM Tris/HCL pH 7.9; 60 mM KCl; 5 mM MgCl2; 1 mM DTT, 0.2 mM PMSF; 10% glycerol. A typical dialyzed eluate fraction contained the fusion protein at a purity of more than 80%. Total protein concentration was 0.1-0.3 mg/ml.
The TIF2 fragment was subsequently biotinylated by addition of 5-40 ul/ml Tif2 fraction of a Biotinamidocaproate N-Hydroxysuccinimide-ester (Sigma) solution (20 mg/ml in DMSO). Overhead rotating samples were incubated for 2 hours at room temperature. Unincorporated label was then separated using G25 Gel filtration chromatography (Pharmacia Biotech, Sweden). Protein containing fractions from the column were pooled and tested for activity in the assay as described below.
For screening of compound libraries as provided for by the methods shown below in the examples for substances which influence the LXR/Tif 2 interaction, the PerkinElmer LANCE technology is applied. This method relies on the binding dependent energy transfer from a donor to an acceptor fluorophore attached to the binding partners of interest. […]

HepG2 liver cells = assay: Triglyceride assay in HepG2 cells; assay type: cell-based; settings: 24 h, 25 pM
Protocol: Methods: Cultures of the monocyte-macrophage cell line and the hepatocytes HepG2 are obtained from the American Type tissue Culture Collection, Rockville, Md. and were grown in RPMI 1640 medium supplemented with 10% fetal bovine serum, 10 mM HEPES, 2 mM pyruvate, 50 uM (3-Mercaptoethanol (THP-1) and Minimum essential medium (Eagle) with 2 mM L-glutamine and Earle's BSS supplemented with 10% fetal bovine serum, 2 mM glutamin, 0.1 mM non-essential amino acids, 1 mM sodium pyruvate (HepG2), respectively, at 37° C. in 5% CO2.
For cholesterol efflux measurements and triglyceride analysis cells are seeded in 6 well plates at 1.8×10^6 cells (THP-1) and 1×10^6 cells (HepG2) per well, respectively.
TRIGLYCERIDE ASSAY HepG2 cells are seeded in poly-L-Lysine coated 6 well plates at 1×10^6 cells per well in EMEM medium containing 10% FCS until they were appr. 60% confluent. Before treatment with LXR compounds growth medium is changed to medium containing 10% charcoal/dextran-stripped FCS for 12 h. Treatment is done for 24 h in medium containing 10% charcoal/dextran-stripped FCS. Cells are washed twice with ice-cold PBS/0.2% BSA and twice with cold PBS and all liquid carefully removed. Triglyceride are extracted with 1.5 ml hexane/isopropanol=3: 2 per well with gentle shaking for 2-3 h at RT according to Pan et al. (2002) JBC277, 4413-4421 and Goti et al. (1998) Biochem J, 332, 57-65. The extraction solution is collected, dried under vacuum and redissolved in isopropanol/1.5% triton. The remaining cellular proteins are lysed with 0.3 N NaOH and protein content measured with the Biorad Bradford reagent.
Triglyceride levels are measured as esterified glycerol using a commercial enzymatic colorimetric kit (Sigma 343-25P). In a preliminary assay it is checked by omitting the lipase enzyme that contribution of free glycerol is negligible.

THP-1 macrophages = assay: Cholesterol efflux from differentiated THP-1 macrophages; assay type: cell-based; settings: ApoA1, 10 uM, 24 h
Protocol: Methods: Cultures of the monocyte-macrophage cell line and the hepatocytes HepG2 are obtained from the American Type tissue Culture Collection, Rockville, Md. and were grown in RPMI 1640 medium supplemented with 10% fetal bovine serum, 10 mM HEPES, 2 mM pyruvate, 50 uM (3-Mercaptoethanol (THP-1) and Minimum essential medium (Eagle) with 2 mM L-glutamine and Earle's BSS supplemented with 10% fetal bovine serum, 2 mM glutamin, 0.1 mM non-essential amino acids, 1 mM sodium pyruvate (HepG2), respectively, at 37° C. in 5% CO2. THP-1 cells are differentiated into macrophages by addition of 100 nM Phorbol 12-Myristate 13-Acetate (PMA; Sigma P8139) and PMA included in the medium of all subsequent experiments to maintain differentiation. For cholesterol efflux measurements and triglyceride analysis cells are seeded in 6 well plates at 1.8×10^6 cells (THP-1) and 1×10^6 cells (HepG2) per well, respectively. CHOLESTEROL EFFLUX THP-1 cells are seeded in 6 well plates at 1×10^6 cells per well in RPMI 1640 medium containing 10% FCS and 100 nM TPA for 72 h. After washing with PBS cells are incubated 24 h with fresh in RPMI 1640 medium containing 10% FCS and 100 nM TPA. […] Medium is collected, centrifuged to remove cell debris and assayed for cholesterol using a commercial fluorometric kit (Molecular Probes A-12216). The remaining cellular proteins are lysed with 0.3 NNaOH and protein content measured with the Biorad Bradford reagent. THP-1 (1×10^6 cells per dish) cells were seeded in 6 well dishes in 3 ml modified RPMI 1640 medium (ATTC, Cat. […] After incubation for 24 hours, total cholesterol was determined from cell supernatant in each of the wells using an enzymatic assay with fluorescence read-out for the determination of cholesterol (Amplex Red Cholesterol Assay Kit (A-12213). The fluorescence readout per mg of total protein content as determined from cells that were present in the respective well are shown in FIGS. 9 or 11 as an example.

Gal4DBD-LXRa = target: T2, Gal4DBD-LXRa (Homo sapiens, UniProt Q13133); assay: pFR-luc reporter transactivation in CHO cells, Gal4DBD-LXRa; assay type: cell-based; settings: 16 h, 0.032 to 50 uM
T2 construct: expressed in transfected cells; host or cells: CHO
T2 sequence (Q13133 209-447 limits assumed): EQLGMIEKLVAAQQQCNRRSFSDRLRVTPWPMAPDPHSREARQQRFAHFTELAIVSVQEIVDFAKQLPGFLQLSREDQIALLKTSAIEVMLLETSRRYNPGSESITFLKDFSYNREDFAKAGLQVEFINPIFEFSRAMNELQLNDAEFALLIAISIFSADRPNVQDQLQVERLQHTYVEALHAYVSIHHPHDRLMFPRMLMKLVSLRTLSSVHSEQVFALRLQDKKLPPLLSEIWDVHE
Protocol: (§1) CHO cells (1×10^5 cells 96 well plate) were co-transfected (Lipofectamine 2000 GIBCO) with pFR-luc (Stratagene) as a reporter gene construct and pCMV-AD derivatives containing the LXRa or LXRb ligand binding domains, which were cloned via the gateway system (GIBCO) described in Example 1, in order to express Gal4DBD-LXRa or Gal4DBD-LXRb fusion proteins.
(§2) Cells were grown in DMEM containing 10% FCS at 37° C. in 5% humidified CO2 for 16 h in presence of 0.05% DMSO vehicle or 0.032 to 50 uM LN0000006500 in vehicle (as indicated in FIG. 9). Luciferase activity was determined from aliquots of extracts prepared from cells following standard luciferase assay kits and protocols from Promega.

Gal4DBD-LXRb = target: T3, Gal4DBD-LXRb (Homo sapiens, UniProt P55055); assay: pFR-luc reporter transactivation in CHO cells, Gal4DBD-LXRb; assay type: cell-based; settings: 16 h, 0.032 to 50 uM
T3 construct: expressed in transfected cells; host or cells: CHO
T3 sequence (P55055 222-460 limits assumed): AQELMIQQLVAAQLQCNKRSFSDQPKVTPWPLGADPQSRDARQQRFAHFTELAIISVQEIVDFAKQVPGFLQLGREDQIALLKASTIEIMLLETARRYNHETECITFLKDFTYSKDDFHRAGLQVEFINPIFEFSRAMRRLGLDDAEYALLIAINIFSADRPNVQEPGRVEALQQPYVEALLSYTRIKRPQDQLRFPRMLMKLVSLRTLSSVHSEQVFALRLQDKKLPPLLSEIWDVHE
Protocol: as §1, §2

EC50 (human LXRalpha LBD; FRET assay, read-out: EC50 at LXR (half-maximal effective concentration)): 500 nM
Compound: C=CCn1c(N2CC3(C)CC2CC(C)(C)C3)nc2ccccc2c1=O (stereo not drawn) [formula (4)]

transactivation of the pFR-luc reporter gene via Gal4 LBD-fusion construct derived from LXRa (Gal4DBD-LXRa): can selectively enhance transcription
transactivation of the pFR-luc reporter gene via Gal4 LBD-fusion construct derived from LXRb (Gal4DBD-LXRb): can selectively enhance transcription
Compound: O=S(=O)(c1ccccc1)N(CC(F)(F)F)c1ccc(C(O)(C(F)(F)F)C(F)(F)F)cc1 [T0901317, reference compound]
triglyceride mass (HepG2 liver cells): marked increase
cholesterol export (THP-1 macrophages): marked increase

active as agonist / partial agonist of the LXR human nuclear receptor (human LXRalpha LBD): active as agonist
Compound: CC(C)n1c(N2CC3(C)CC2CC(C)(C)C3)nc2ccc(Br)cc2c1=O (stereo not drawn) [formula (6)]
